Data from US8846760B2, “Dihydronaphthalene and naphthalene derivatives as N-formyl peptide receptor like-1 (FPRL-1) receptor modulators” (Allergan, Inc., priority 2011, dated 2014).
pEC50: −log10 of the molar value.

Molecular target: T1, FPRL-1 (Homo sapiens, UniProt P25090)
T1 construct: expressed in transfected cells
T1 sequence (P25090 1-351): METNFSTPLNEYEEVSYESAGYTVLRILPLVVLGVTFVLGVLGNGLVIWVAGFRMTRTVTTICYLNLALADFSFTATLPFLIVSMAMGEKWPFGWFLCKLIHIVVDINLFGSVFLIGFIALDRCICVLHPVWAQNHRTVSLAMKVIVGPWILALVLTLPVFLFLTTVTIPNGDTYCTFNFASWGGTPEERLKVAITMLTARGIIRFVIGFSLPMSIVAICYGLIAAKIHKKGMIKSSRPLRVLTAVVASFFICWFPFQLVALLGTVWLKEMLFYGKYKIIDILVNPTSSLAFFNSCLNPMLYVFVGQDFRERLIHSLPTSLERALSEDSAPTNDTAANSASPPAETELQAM
Experiment: Compound-induced calcium activity on FLIPR Tetra in CHO-Gα16 cells stably expressing FPRL1
Format: cell-based
Details: for Emax: efficacy, read-out: FPRL-1 Ga16-CHO (eff %); for pEC50: tested 0.61 to 10,000 nM, read-out: FPRL-1 Ga16-CHO EC50
Protocol: CHO-Gα16 cells stably expressing FPRL1 were cultured in (F12, 10% FBS, 1% PSA, 400 μg/ml geneticin and 50 μg/ml hygromycin) and HEK-Gqi5 cells stable expressing FPR1 were cultured in (DMEM high glucose, 10% FBS, 1% PSA, 400 μg/ml geneticin and 50 μg/ml hygromycin). In general, the day before the experiment, 18,000 cells/well were plated in a 384-well clear bottom poly-d-lysine coated plate. The following day the screening compound-induced calcium activity was assayed on the FLIPR^Tetra. The drug plates were prepared in 384-well microplates using the EP3 and the MultiPROBE robotic liquid handling systems. Compounds were tested at concentrations ranging from 0.61 to 10,000 nM. Results are expressed as EC50 (nM) and efficacy values.

SMILES | Emax [%] | pEC50
Cc1cc(C)c2c(c1)C(C(=O)O)=C(C(=O)Nc1ccc(Br)cc1)CC2 [Compound 7, 2-{[(4-Bromophenyl)amino]carbonyl}-5,7-dimethyl-3,4-dihydronaphthalene-1-carboxylic acid] | 95 | 5.41
CC1(C)CC(C(=O)Nc2ccc(Br)cc2)=C(C(=O)O)c2ccccc21 [Compound 3, 2-{[(4-Bromophenyl)amino]carbonyl}-4,4-dimethyl-3,4-dihydronaphthalene-1-carboxylic acid] | 95 | 7.06
Cc1ccc(C)c2c1CCC(C(=O)Nc1ccc(Br)cc1)=C2C(=O)O [Compound 8, 2-{[(4-Bromophenyl)amino]carbonyl}-5,8-dimethyl-3,4-dihydronaphthalene-1-carboxylic acid] | 93 | 6.70
CC(C)c1cccc2c1CCC(C(=O)Nc1ccc(Br)cc1)=C2C(=O)O [Compound 1, 2-{[(4-Bromophenyl)amino]carbonyl}-5-isopropyl-3,4-dihydronaphthalene-1-carboxylic Acid] | 80 | 6.12
CC1(C)CCC(C)(C)c2cc(C(=O)Nc3ccc(Br)cc3)c(C(=O)O)cc21 [Compound 10, 3-{[(4-Bromophenyl)amino]carbonyl}-5,5,8,8-tetramethyl-5,6,7,8-tetrahydronaphthalene-2-carboxylic acid] | 58 | 5.81
O=C(O)C1=C(C(=O)Nc2ccc(Br)cc2)CCc2ccc(Cl)cc21 [Compound 4, 2-{[(4-Bromophenyl)amino]carbonyl}-7-chloro-3,4-dihydronaphthalene-1-carboxylic acid] | 81 | 6.11
CC(C)(C)c1ccc2c(c1)C(C(=O)O)=C(C(=O)Nc1ccc(Br)cc1)CC2 [Compound 2, 2-{[(4-Bromophenyl)amino]carbonyl}-7-tert-butyl-3,4-dihydronaphthalene-1-carboxylic acid] | 86 | 5.88
O=C(O)C1=C(C(=O)Nc2ccc(Br)cc2)CCc2c1cccc2-c1ccccc1 [Compound 5, 2-{[(4-Bromophenyl)amino]carbonyl}-5-phenyl-3,4-dihydronaphthalene-1-carboxylic acid] | 100 | 6.25
O=C(O)c1cc2ccccc2cc1C(=O)Nc1ccc(Br)cc1 [Compound 9, 3-{[(4-Bromophenyl)amino]carbonyl}-2-naphthoic acid] | 92 | 5.23
O=C(Nc1ccc(Br)cc1)c1ccc2ccccc2c1C(=O)O [Compound 11, 2-{[(4-Bromophenyl)amino]carbonyl}-1-naphthoic acid] | 100 | 5.89
O=C(O)C1=C(C(=O)Nc2ccc(Br)cc2)CCc2ccccc21 [Compound 6, 2-{[(4-Bromophenyl)amino]carbonyl}-3,4-dihydronaphthalene-1-carboxylic acid] | 90 | 6.42
CCc1cc(C(=O)Nc2ccc(Br)cc2)c(C(=O)O)c2ccccc12 [Compound 12, 2-{[(4-Bromophenyl)amino]carbonyl}-4-ethyl-1-naphthoic acid] | 95 | 6.78
